Reference: ChEMBL document CHEMBL1201862, “PubChem BioAssay data set” (2004)
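Grown in 96-well plates, cells were treated for 48 hours with each compound at five concentrations. Insufficient inhibition: endpoint recorded as highest concentration tested. Here, GI50 denotes the concentration required for 50% inhibition of growth.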 Activity calls are given as the source filed them. Rule as the data show it: active = GI50 up to about 1.1 µM and inactive = higher.

Key:
Assay in all cases: NCI-60 cell line screen, 48 h
[1] = system: 786-0
[2] = system: A498
[3] = system: BT-549
[4] = system: CAKI-1
[5] = system: CCRF-CEM
[6] = system: COLO 205
[7] = system: HCT-116
[8] = system: HT-29
[9] = system: IGROV-1
[10] = system: K562
[11] = system: LOX IMVI
[12] = system: MOLT-4
[13] = system: NCI-H226
[14] = system: NCI/ADR-RES
[15] = system: SF-268
[16] = system: SK-MEL-28
[17] = system: SK-OV-3
[18] = system: SR
[19] = system: UO-31

| SMILES | GI50 [1] | GI50 [2] | GI50 [3] | GI50 [4] | GI50 [5] | GI50 [6] | GI50 [7] | GI50 [8] | GI50 [9] | GI50 [10] | GI50 [11] | GI50 [12] | GI50 [13] | GI50 [14] | GI50 [15] | GI50 [16] | GI50 [17] | GI50 [18] | GI50 [19] |
| --- | --- | --- | --- | --- | --- | --- | --- | --- | --- | --- | --- | --- | --- | --- | --- | --- | --- | --- | --- |
| C=C1C(=O)O[C@H]2C1C[C@@H](O)/C(C)=C/CC[C@@]1(C)O[C@H]21 (stereo partly specified) | 10.5 µM (inactive) | 25 µM (inactive) | 8.04 µM (inactive) | 3.03 µM (inactive) | 3.17 µM (inactive) | 4.93 µM (inactive) | 8.93 µM (inactive) | 22.9 µM (inactive) | 12.7 µM (inactive) | 6.37 µM (inactive) | 9.16 µM (inactive) | 6.93 µM (inactive) | > 54.3 µM (inactive) | 30.5 µM (inactive) | 39 µM (inactive) | 15.2 µM (inactive) | 49.7 µM (inactive) | 7.64 µM (inactive) | 18.7 µM (inactive) |
| O=C1CCCC2=C1CC1=C(CCCC1=O)N2c1ccccc1 | > 100 µM (inactive) | > 100 µM (inactive) | > 100 µM (inactive) | > 100 µM (inactive) | > 100 µM (inactive) |  |  | > 100 µM (inactive) | > 100 µM (inactive) | > 100 µM (inactive) | > 100 µM (inactive) | > 100 µM (inactive) | > 100 µM (inactive) | > 100 µM (inactive) | > 100 µM (inactive) | > 100 µM (inactive) | > 100 µM (inactive) | > 100 µM (inactive) | > 100 µM (inactive) |
| CCOC(=O)N(Cc1cccs1)c1cc(OC)c(OC)c(OC)c1 | > 100 µM (inactive) | > 100 µM (inactive) | 40.6 µM (inactive) | 56.5 µM (inactive) | 41 µM (inactive) | 7.18 µM (inactive) | > 100 µM (inactive) | 70.1 µM (inactive) | 17 µM (inactive) | 26.2 µM (inactive) | 45.2 µM (inactive) | 13.6 µM (inactive) | 86.3 µM (inactive) | 3.01 µM (inactive) | > 100 µM (inactive) | > 100 µM (inactive) |  | 21.3 µM (inactive) | 38.4 µM (inactive) |
| Cc1cccc2c(N)c3cccc(C(=O)NCC[N+](C)(C)Cc4c([N+](=O)[O-])ncn4C)c3nc12 | 6.5 µM (inactive) | 47.6 µM (inactive) | 46.1 µM (inactive) | 2.69 µM (inactive) | 18.9 µM (inactive) | 24.3 µM (inactive) | 26.4 µM (inactive) | 12.7 µM (inactive) | 27.3 µM (inactive) | 11.1 µM (inactive) | 11.4 µM (inactive) | 3.05 µM (inactive) | 29.2 µM (inactive) | > 49.9 µM (inactive) | 28.2 µM (inactive) | > 100 µM (inactive) | 31.6 µM (inactive) | 23 µM (inactive) | 16.6 µM (inactive) |
| Cc1ccc(-n2cc(-c3ccc(Cl)cc3)c3c2N=CN2N=C(c4ccco4)NC32)cc1 (stereo unspecified) | 4.67 µM (inactive) | 4.22 µM (inactive) | 26.2 µM (inactive) | 10.1 µM (inactive) | 21 µM (inactive) | 9.18 µM (inactive) | 7.05 µM (inactive) | > 100 µM (inactive) | 7.62 µM (inactive) | 7.41 µM (inactive) | 21.9 µM (inactive) |  | 11.2 µM (inactive) | 7.5 µM (inactive) | 15.3 µM (inactive) | 71 µM (inactive) | 4.13 µM (inactive) | 0.78 µM (active) | 5.05 µM (inactive) |
| COc1ccc(NC=O)c(C(=O)CCNC(C)=O)c1 | > 100 µM (inactive) | > 100 µM (inactive) | > 100 µM (inactive) | > 100 µM (inactive) | > 100 µM (inactive) | > 100 µM (inactive) | > 100 µM (inactive) | > 100 µM (inactive) | > 100 µM (inactive) | > 100 µM (inactive) | > 100 µM (inactive) | > 100 µM (inactive) | > 100 µM (inactive) | > 100 µM (inactive) | > 100 µM (inactive) |  | > 100 µM (inactive) | > 100 µM (inactive) | > 100 µM (inactive) |
| O=C(Nc1ccc(-c2cn3ccccc3n2)cc1)c1cc(Br)ccc1O | > 100 µM (inactive) | > 100 µM (inactive) | > 100 µM (inactive) | > 100 µM (inactive) | > 100 µM (inactive) | > 100 µM (inactive) | > 100 µM (inactive) | > 100 µM (inactive) | > 100 µM (inactive) | > 100 µM (inactive) | > 100 µM (inactive) | > 100 µM (inactive) | > 100 µM (inactive) | > 100 µM (inactive) | > 100 µM (inactive) | > 100 µM (inactive) | > 100 µM (inactive) | > 100 µM (inactive) |  |
| Nc1nc(N)c2nc(CNc3ccc(C(=O)NC(CCNC(=O)c4ccccc4C(=O)O)C(=O)O)cc3)cnc2n1 (stereo unspecified) | 0.01 µM (active) | 0.054 µM (active) | > 100 µM (inactive) | 0.01 µM (active) | 0.01 µM (active) |  | 0.00502 µM (active) | 0.01 µM (active) | < 0.0212 µM (active) | 0.01 µM (active) | 0.01 µM (active) | < 0.0154 µM (active) | > 100 µM (inactive) | < 0.0173 µM (active) | 0.0101 µM (active) | 4.14 µM (inactive) | > 100 µM (inactive) | 0.01 µM (active) | 0.00802 µM (active) |
| CN(C)CCCc1c2ccccc2nc2ccc(Cl)cc12 | 11.7 µM (inactive) | 19.2 µM (inactive) | 18.6 µM (inactive) | 15.2 µM (inactive) | 9.16 µM (inactive) | 14.9 µM (inactive) | 10.9 µM (inactive) | 13.2 µM (inactive) | 16.4 µM (inactive) | 19.1 µM (inactive) | 14.2 µM (inactive) | 17.9 µM (inactive) | 24.2 µM (inactive) | 21.9 µM (inactive) | 14.6 µM (inactive) | 18.3 µM (inactive) | 20.7 µM (inactive) | 18.5 µM (inactive) |  |
| CC(C)(O)c1cc2c(cc1C(C)(C)O)-c1ccccc1-2 | 79.8 µM (inactive) | > 100 µM (inactive) | > 100 µM (inactive) | > 100 µM (inactive) | > 100 µM (inactive) | > 100 µM (inactive) |  |  | > 100 µM (inactive) | > 100 µM (inactive) | > 100 µM (inactive) | > 100 µM (inactive) | > 100 µM (inactive) | > 100 µM (inactive) | 43.8 µM (inactive) | > 100 µM (inactive) |  | > 100 µM (inactive) |  |
| Brc1ccc2c(c1)C1=C(CO2)Cc2ccccc2O1 | 22.7 µM (inactive) | 27.4 µM (inactive) | 18.2 µM (inactive) | 18.2 µM (inactive) | 39.4 µM (inactive) | 17.4 µM (inactive) | 16.4 µM (inactive) | 23.3 µM (inactive) | 12.4 µM (inactive) | 16.2 µM (inactive) | 17.4 µM (inactive) | 20 µM (inactive) | 17.5 µM (inactive) | 23 µM (inactive) | 19.1 µM (inactive) |  | 21.5 µM (inactive) | 36.2 µM (inactive) | 16.5 µM (inactive) |
